Experimental data: paper PMC6881293, “Nanomolar-potency ‘co-potentiator’ therapy for cystic fibrosis caused by a defined subset of minimal function CFTR mutants” (Scientific Reports, 2019)

What was measured:
Format in all cases: cell-based
[1] = target: T1, S492F-CFTR (Homo sapiens, UniProt P13569, S492F); experiment: Short-circuit current in FRT cells expressing S492F-CFTR; settings: 20 µM forskolin, 5 µM VX-770, 20 µM ASP-11, 3 µM VX-809 for 18–24 h
T1 construct: expressed in transfected cells; host or cells: Fischer rat thyroid (FRT) cells; gift from Drs; Andras Rab and Jeong Hong (Emory University)
T1 sequence (P13569 whole entry S492F): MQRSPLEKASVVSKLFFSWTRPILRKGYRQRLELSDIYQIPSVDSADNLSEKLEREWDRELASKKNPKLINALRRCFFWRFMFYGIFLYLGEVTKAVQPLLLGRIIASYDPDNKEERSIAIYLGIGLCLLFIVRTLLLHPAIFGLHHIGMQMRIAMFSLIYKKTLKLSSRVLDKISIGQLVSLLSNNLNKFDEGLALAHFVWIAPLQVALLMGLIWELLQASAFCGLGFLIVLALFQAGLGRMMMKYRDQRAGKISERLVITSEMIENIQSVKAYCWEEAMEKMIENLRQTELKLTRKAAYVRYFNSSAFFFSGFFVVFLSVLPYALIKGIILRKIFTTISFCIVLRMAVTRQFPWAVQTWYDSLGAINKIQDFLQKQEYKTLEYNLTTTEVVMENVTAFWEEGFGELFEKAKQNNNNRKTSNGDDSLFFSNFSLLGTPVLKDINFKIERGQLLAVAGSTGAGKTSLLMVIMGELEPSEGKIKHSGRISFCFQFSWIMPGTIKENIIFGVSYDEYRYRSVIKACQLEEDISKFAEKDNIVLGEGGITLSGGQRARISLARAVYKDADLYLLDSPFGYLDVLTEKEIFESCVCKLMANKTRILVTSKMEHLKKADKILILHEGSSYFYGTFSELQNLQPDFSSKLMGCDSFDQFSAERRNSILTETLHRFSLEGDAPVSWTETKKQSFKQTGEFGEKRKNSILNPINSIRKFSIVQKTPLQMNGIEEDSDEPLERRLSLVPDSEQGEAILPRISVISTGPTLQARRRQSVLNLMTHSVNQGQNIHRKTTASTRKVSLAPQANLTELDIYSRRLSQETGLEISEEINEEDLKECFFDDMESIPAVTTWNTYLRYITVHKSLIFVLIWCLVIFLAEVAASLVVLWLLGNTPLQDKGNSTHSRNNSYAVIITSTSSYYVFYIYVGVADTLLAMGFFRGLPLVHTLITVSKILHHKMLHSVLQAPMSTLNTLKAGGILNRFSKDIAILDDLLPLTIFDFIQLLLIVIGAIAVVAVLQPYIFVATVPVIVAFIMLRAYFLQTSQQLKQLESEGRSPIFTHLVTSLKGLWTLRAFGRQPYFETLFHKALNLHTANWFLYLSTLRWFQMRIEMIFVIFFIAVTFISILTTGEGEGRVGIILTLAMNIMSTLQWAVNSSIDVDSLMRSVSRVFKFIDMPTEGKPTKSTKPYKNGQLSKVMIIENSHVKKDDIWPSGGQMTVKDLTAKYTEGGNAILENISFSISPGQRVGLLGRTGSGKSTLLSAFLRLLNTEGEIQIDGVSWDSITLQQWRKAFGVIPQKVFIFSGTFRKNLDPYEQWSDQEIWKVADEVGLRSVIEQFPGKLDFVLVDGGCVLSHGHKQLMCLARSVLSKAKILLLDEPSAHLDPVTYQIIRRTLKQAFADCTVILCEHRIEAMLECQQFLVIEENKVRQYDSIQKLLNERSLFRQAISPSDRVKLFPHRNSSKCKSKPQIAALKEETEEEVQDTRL
Procedure: (§1) Figure 1 Co-potentiator ASP-11 activity in minimal function CFTR mutants in transfected FRT cells. (A) Structure of ASP-11. (B) Location of minimal function CFTR mutants studied herein. (C) Representative short-circuit current data in FRT cells expressing I1234del-CFTR, Q1313X-CFTR and S492F-CFTR in response to 20 µM forskolin (fsk), 5 µM VX-770, 20 µM ASP-11 and 10 μM CFTRinh-172. As indicated, cells were treated with 3 µM VX-809 for 18–24 h prior to measurements. (n = 3) (D). Representative short-circuit current data in FRT cells expressing predicted W1282X-CFTR read-through products W1282L-CFTR, W1282R-CFTR and W1282C-CFTR (without and with VX-809 pretreatment) (n = 3). MSD, membrane spanning domain; NBD, nucleotide binding domain; R, regulatory domain.
(§2) As shown in Fig. 1C and summarized in Fig. 2, ASP-11 acted in synergy with VX-770 to increase chloride current in FRT cells expressing the NBD2 mutations I1234del- and Q1313X-CFTR by ~3–9-fold compared to VX-770. I1234del- and Q1313X-CFTR-expressing cells were also treated with VX-809 for 24 hours (to consider the effect of available CFTR therapeutics) with 2–3-fold greater currents observed.
Short-circuit current was measured on cells cultured on Snapwell clear permeable supports (Corning) as described[10],[11]. Hemichambers were connected to a DVC-1000 voltage clamp (World Precision Instruments Inc., Sarasota, FL) via Ag/AgCl electrodes and 3 M KCl agar bridges for recording of the short-circuit current. For human airway epithelial cells, symmetrical HCO3^−-buffered solutions (in mM: 120 NaCl, 5 KCl, 1 MgCl2, 1 CaCl2, 5 Hepes, 25 NaHCO3, 10 glucose, pH 7.4) for basolateral and apical side were used. For FRT cells, the basolateral membrane was permeabilized with 250 μg/ml amphotericin B, and experiments were done with a chloride gradient using a HCO3^−-buffered solutions (Basolateral (mM): 120 NaCl, 5 KCl, 1 MgCl2, 1 CaCl2, 5 Hepes, 25 NaHCO3, 10 glucose, pH 7.4; apical (mM): 60 NaCl, 60 mM sodium gluconate, 5 KCl, 1 MgCl2, 1 CaCl2, 5 Hepes, 25 NaHCO3, 10 glucose, pH 7.4). […]

[2] = target: T2, W1282L-CFTR (Homo sapiens, UniProt P13569, W1282L); experiment: Short-circuit current in FRT cells expressing W1282L-CFTR; settings: 20 µM forskolin, 5 µM VX-770, 20 µM ASP-11
T2 construct: introduced into full-length CFTR cDNA in the vector pcDNA3.1/Zeo (+); expressed in transfected cells
T2 sequence (P13569 whole entry W1282L): as the sequence (P13569 whole entry S492F) above, with F492S, W1282L counted along it
Procedure: as §1
(§3) Compounds that promote read-through of PTCs to generate full-length CFTR have shown limited efficacy in cell culture studies[15]–[17]. Though the read-through drug ataluren (PTC124) was ineffective in clinical trials, newer compounds are in development. We investigated the ability of ASP-11 to activate chloride current in predicted W1282X-CFTR read-through products. […] FRT cell lines were generated that stably expressing W1282L-, W1282C- and W1282R-CFTR.
(§4) Short-circuit current was measured on cells cultured on Snapwell clear permeable supports (Corning) as described[10],[11]. […]

[3] = target: T3, W1282C-CFTR (Homo sapiens, UniProt P13569, W1282C); experiment: Short-circuit current in FRT cells expressing W1282C-CFTR; settings: 20 µM forskolin, 5 µM VX-770, 20 µM ASP-11
T3 construct: introduced into full-length CFTR cDNA in the vector pcDNA3.1/Zeo (+); expressed in transfected cells
T3 sequence (P13569 whole entry W1282C): as the sequence (P13569 whole entry S492F) above, with F492S, W1282C counted along it
Procedure: as §1, §3, §4

[4] = target: T4, R334W-CFTR (Homo sapiens, UniProt P13569, R334W); experiment: Short-circuit current in FRT cells expressing R334W-CFTR; settings: 20 μM forskolin, 5 µM VX-770, 20 µM ASP-11
T4 construct: expressed in transfected cells; host or cells: Fischer rat thyroid (FRT) cells; gift from Drs; Andras Rab and Jeong Hong (Emory University)
T4 sequence (P13569 whole entry R334W): as the sequence (P13569 whole entry S492F) above, with R334W, F492S counted along it
Procedure: as §2
(§5) Figure 2 Summary of short-circuit current responses to modulators for CFTR mutants in transfected FRT cells. Responses to indicated CFTR mutants with 20 μM forskolin, 5 µM VX-770, 20 µM ASP-11 (with or without 3 µM VX-809 overnight). For reference, data shown for cells expressing wild type CFTR. Mean ± S.E.M., n = 3.
(§6) Short-circuit current was measured on cells cultured on Snapwell clear permeable supports (Corning) as described[10],[11]. Hemichambers were connected to a DVC-1000 voltage clamp (World Precision Instruments Inc., Sarasota, FL) via Ag/AgCl electrodes and 3 M KCl agar bridges for recording of the short-circuit current. For human airway epithelial cells, symmetrical HCO3^−-buffered solutions (in mM: 120 NaCl, 5 KCl, 1 MgCl2, 1 CaCl2, 5 Hepes, 25 NaHCO3, 10 glucose, pH 7.4) for basolateral and apical side were used. […]

[5] = target: T5, R560T-CFTR (Homo sapiens, UniProt P13569, R560T); experiment: Short-circuit current in FRT cells expressing R560T-CFTR; settings: 20 μM forskolin, 5 µM VX-770, 20 µM ASP-11
T5 construct: expressed in transfected cells; host or cells: Fischer rat thyroid (FRT) cells; gift from Drs; Andras Rab and Jeong Hong (Emory University)
T5 sequence (P13569 whole entry R560T): as the sequence (P13569 whole entry S492F) above, with F492S, R560T counted along it
Procedure: as §2, §5, §6

[6] = target: T6, N1303K-CFTR (Homo sapiens, UniProt P13569, N1303K); experiment: Short-circuit current in primary human bronchial epithelial cell cultures from a N1303K homozygous CF subject
T6 construct: expressed in transfected cells
T6 sequence (P13569 whole entry N1303K): as the sequence (P13569 whole entry S492F) above, with F492S, N1303K counted along it
Procedure: To test the efficacy of new co-potentiators in human airway cell models, short-circuit current was measured in 16HBE14o- human airway epithelial cells in which the endogenous CFTR gene was edited to contain the N1303K mutation (16HBE-N1303Kge[21]) and in primary cultures of human bronchial epithelial cells from a N1303K homozygous CF subject. Addition of forskolin and then VX-770 to 16HBE-N1303Kge cells gave a limited response (Fig. 6A). Subsequent addition of CP-A061 or CP-D123 produced CFTRinh-172-inhibitable responses of ~10 μA/cm^2, ~6-fold greater that that produced by VX-770 alone. Increased short-circuit current was also found for these co-potentiators in the primary human bronchial epithelial cell cultures (Fig. 6B).
Figure 6 N1303K-CFTR activity in human airway epithelial cell cultures. (A) Short-circuit current in gene-edited 16HBE14o- cells expressing N1303K-CFTR. Concentrations: 20 µM amiloride, 20 µM forskolin, 5 µM VX-770, 20 µM CP-A061 and CP-D123, and 10 µM CFTRinh-172. Representative original curves (left and center) and summary of changes in current (∆Isc) (right). Mean ± S.E.M., n = 3, *P < 0.05). (B) Short-circuit current in primary cultures of human bronchial epithelial cells from a homozygous N1303K-CFTR CF subject. […]
as §4

short-circuit current response to modulator [1]	effect on short-circuit current after forskolin [2]	effect on short-circuit current after forskolin [3]	ASP-11 effect on short-circuit current [4]	ASP-11 effect on short-circuit current [5]	Compound	current as equivalent of wildtype CFTR activity ([6]; estimate based on similarly cultured non-CF and CF human airway epithelial cell cultures)	CFTRinh-172-inhibitable current ([6]; primary human bronchial cell cultures, homozygous N1303K-CFTR subject, 20 µM compound after forskolin and 5 µM VX-770)
no response	little additional	significant further effects			CC(C)(C)c1cc(C(C)(C)C)c(NC(=O)c2c[nH]c3ccccc3c2=O)cc1O [VX-770, ivacaftor]		
no response	little additional	significant further effects	absence of ASP-11 effect	absence of ASP-11 effect	CCCCn1cc(S(=O)(=O)Nc2ccc(CC)cc2)c2cccnc21 [ASP-11]		
					COc1ccc2[nH]c3c(c2c1)CCNC31CCN(Cc2ccc(F)cc2F)CC1 [Compound A061]	~ 20%	~ 2.5 μA/cm^2
